Experimental data reported in the NIST ThermoML archive (doi:10.1021/acs.jced.7b00106).
Several values for one entry are separate records, joined by “and”; a condition that tells them apart may be missing. Identical values can stand only once.

Details: Hot wire method

FC(F)(F)/C=C/Cl [(E)-1-chloro-3,3,3-trifluoroprop-1-ene]
Details | thermal conductivity
403.42 K, 5979 kPa, Liquid | 0.05892 W/m/K
403.43 K, 18618 kPa, Liquid | 0.06817 W/m/K
403.44 K, 18637 kPa, Liquid | 0.06808 W/m/K
403.48 K, 4696 kPa, Liquid | 0.0577 W/m/K
403.48 K, 4700 kPa, Liquid | 0.05772 W/m/K
403.49 K, 9102 kPa, Liquid | 0.06156 W/m/K
403.49 K, 9108 kPa, Liquid | 0.06159 W/m/K
403.53 K, 3569 kPa, Liquid | 0.05653 W/m/K
403.54 K, 3575 kPa, Liquid | 0.05665 W/m/K
403.54 K, 15778 kPa, Liquid | 0.06628 W/m/K
403.54 K, 15782 kPa, Liquid | 0.06631 W/m/K
403.58 K, 7083 kPa, Liquid | 0.05991 W/m/K
403.58 K, 7093 kPa, Liquid | 0.05996 W/m/K
403.59 K, 2636 kPa, Liquid | 0.0556 W/m/K
403.6 K, 2641 kPa, Liquid | 0.05565 W/m/K
420.8 K, 2579 kPa, Fluid (supercritical or subcritical phases) | 0.02548 W/m/K
420.81 K, 2579 kPa, Fluid (supercritical or subcritical phases) | 0.02537 W/m/K
420.9 K, 2520 kPa, Fluid (supercritical or subcritical phases) | 0.02499 W/m/K and 0.02461 W/m/K
420.92 K, 2579 kPa, Fluid (supercritical or subcritical phases) | 0.02548 W/m/K and 0.02551 W/m/K
421 K, 2520 kPa, Fluid (supercritical or subcritical phases) | 0.02479 W/m/K
421.01 K, 2519 kPa, Fluid (supercritical or subcritical phases) | 0.0248 W/m/K
421.03 K, 2579 kPa, Fluid (supercritical or subcritical phases) | 0.02568 W/m/K
421.04 K, 2579 kPa, Fluid (supercritical or subcritical phases) | 0.02548 W/m/K
421.11 K, 2519 kPa, Fluid (supercritical or subcritical phases) | 0.02483 W/m/K
421.11 K, 2520 kPa, Fluid (supercritical or subcritical phases) | 0.02479 W/m/K
421.15 K, 2469 kPa, Fluid (supercritical or subcritical phases) | 0.02425 W/m/K and 0.02441 W/m/K
421.16 K, 2579 kPa, Fluid (supercritical or subcritical phases) | 0.02588 W/m/K
421.16 K, 2580 kPa, Fluid (supercritical or subcritical phases) | 0.02588 W/m/K
421.21 K, 2403 kPa, Fluid (supercritical or subcritical phases) | 0.02382 W/m/K
421.24 K, 2520 kPa, Fluid (supercritical or subcritical phases) | 0.02505 W/m/K
421.25 K, 2307 kPa, Fluid (supercritical or subcritical phases) | 0.02316 W/m/K and 0.02317 W/m/K
421.25 K, 2520 kPa, Fluid (supercritical or subcritical phases) | 0.02484 W/m/K
421.29 K, 2203 kPa, Fluid (supercritical or subcritical phases) | 0.02266 W/m/K
421.29 K, 2204 kPa, Fluid (supercritical or subcritical phases) | 0.02272 W/m/K
421.29 K, 2468 kPa, Fluid (supercritical or subcritical phases) | 0.02448 W/m/K
421.3 K, 2469 kPa, Fluid (supercritical or subcritical phases) | 0.02444 W/m/K
421.32 K, 2099 kPa, Fluid (supercritical or subcritical phases) | 0.02221 W/m/K
421.33 K, 2099 kPa, Fluid (supercritical or subcritical phases) | 0.02225 W/m/K
421.35 K, 2403 kPa, Fluid (supercritical or subcritical phases) | 0.02395 W/m/K and 0.02391 W/m/K
421.36 K, 1997 kPa, Fluid (supercritical or subcritical phases) | 0.02198 W/m/K and 0.02199 W/m/K
421.39 K, 2307 kPa, Fluid (supercritical or subcritical phases) | 0.02322 W/m/K
421.39 K, 2519 kPa, Fluid (supercritical or subcritical phases) | 0.02527 W/m/K
421.39 K, 2520 kPa, Fluid (supercritical or subcritical phases) | 0.02527 W/m/K
421.4 K, 1861 kPa, Fluid (supercritical or subcritical phases) | 0.0216 W/m/K
421.4 K, 1862 kPa, Fluid (supercritical or subcritical phases) | 0.02165 W/m/K
421.44 K, 1724 kPa, Fluid (supercritical or subcritical phases) | 0.02132 W/m/K
421.44 K, 2203 kPa, Fluid (supercritical or subcritical phases) | 0.02269 W/m/K
421.44 K, 2469 kPa, Fluid (supercritical or subcritical phases) | 0.02473 W/m/K and 0.02459 W/m/K
421.45 K, 1723 kPa, Fluid (supercritical or subcritical phases) | 0.02131 W/m/K
421.45 K, 2204 kPa, Fluid (supercritical or subcritical phases) | 0.02274 W/m/K
421.48 K, 2100 kPa, Fluid (supercritical or subcritical phases) | 0.02256 W/m/K and 0.02228 W/m/K
421.51 K, 2403 kPa, Fluid (supercritical or subcritical phases) | 0.02407 W/m/K and 0.02398 W/m/K
421.52 K, 1998 kPa, Fluid (supercritical or subcritical phases) | 0.02205 W/m/K and 0.02199 W/m/K
421.53 K, 1561 kPa, Fluid (supercritical or subcritical phases) | 0.02097 W/m/K
421.54 K, 1562 kPa, Fluid (supercritical or subcritical phases) | 0.02106 W/m/K
421.56 K, 2307 kPa, Fluid (supercritical or subcritical phases) | 0.02344 W/m/K and 0.02334 W/m/K
421.57 K, 1862 kPa, Fluid (supercritical or subcritical phases) | 0.02171 W/m/K
421.57 K, 1863 kPa, Fluid (supercritical or subcritical phases) | 0.02167 W/m/K
421.58 K, 1402 kPa, Fluid (supercritical or subcritical phases) | 0.02076 W/m/K
421.59 K, 1402 kPa, Fluid (supercritical or subcritical phases) | 0.02091 W/m/K
421.61 K, 2204 kPa, Fluid (supercritical or subcritical phases) | 0.02283 W/m/K
421.62 K, 1724 kPa, Fluid (supercritical or subcritical phases) | 0.02136 W/m/K
421.62 K, 2203 kPa, Fluid (supercritical or subcritical phases) | 0.02292 W/m/K
421.62 K, 2616 kPa, Liquid | 0.0497 W/m/K
421.63 K, 1724 kPa, Fluid (supercritical or subcritical phases) | 0.0214 W/m/K
421.63 K, 2616 kPa, Liquid | 0.04969 W/m/K
421.64 K, 1220 kPa, Fluid (supercritical or subcritical phases) | 0.02082 W/m/K
421.64 K, 1221 kPa, Fluid (supercritical or subcritical phases) | 0.02077 W/m/K
421.66 K, 2099 kPa, Fluid (supercritical or subcritical phases) | 0.02245 W/m/K
421.66 K, 2100 kPa, Fluid (supercritical or subcritical phases) | 0.02244 W/m/K
421.67 K, 2403 kPa, Fluid (supercritical or subcritical phases) | 0.02364 W/m/K
421.68 K, 1031 kPa, Fluid (supercritical or subcritical phases) | 0.02073 W/m/K
421.68 K, 2403 kPa, Fluid (supercritical or subcritical phases) | 0.02418 W/m/K
421.69 K, 1998 kPa, Fluid (supercritical or subcritical phases) | 0.02232 W/m/K
421.7 K, 1999 kPa, Fluid (supercritical or subcritical phases) | 0.02203 W/m/K
421.71 K, 1562 kPa, Fluid (supercritical or subcritical phases) | 0.02117 W/m/K
421.72 K, 2307 kPa, Fluid (supercritical or subcritical phases) | 0.02349 W/m/K
421.74 K, 801 kPa, Fluid (supercritical or subcritical phases) | 0.0208 W/m/K
421.75 K, 1862 kPa, Fluid (supercritical or subcritical phases) | 0.02184 W/m/K
421.75 K, 1863 kPa, Fluid (supercritical or subcritical phases) | 0.02174 W/m/K
421.77 K, 1401 kPa, Fluid (supercritical or subcritical phases) | 0.02096 W/m/K
421.77 K, 1403 kPa, Fluid (supercritical or subcritical phases) | 0.02094 W/m/K
421.78 K, 3760 kPa, Liquid | 0.05136 W/m/K and 0.05147 W/m/K
421.79 K, 2203 kPa, Fluid (supercritical or subcritical phases) | 0.02296 W/m/K and 0.02299 W/m/K
421.8 K, 3309 kPa, Liquid | 0.05069 W/m/K
421.81 K, 1723 kPa, Fluid (supercritical or subcritical phases) | 0.02142 W/m/K
421.81 K, 1724 kPa, Fluid (supercritical or subcritical phases) | 0.02139 W/m/K
421.81 K, 2616 kPa, Liquid | 0.04986 W/m/K and 0.05013 W/m/K
421.81 K, 2914 kPa, Liquid | 0.05019 W/m/K and 0.05004 W/m/K
421.81 K, 3308 kPa, Liquid | 0.05077 W/m/K
421.83 K, 1221 kPa, Fluid (supercritical or subcritical phases) | 0.0209 W/m/K
421.84 K, 2100 kPa, Fluid (supercritical or subcritical phases) | 0.02258 W/m/K
421.85 K, 2099 kPa, Fluid (supercritical or subcritical phases) | 0.02249 W/m/K
421.88 K, 1030 kPa, Fluid (supercritical or subcritical phases) | 0.02077 W/m/K
421.88 K, 1033 kPa, Fluid (supercritical or subcritical phases) | 0.02075 W/m/K
421.88 K, 1998 kPa, Fluid (supercritical or subcritical phases) | 0.0222 W/m/K and 0.02217 W/m/K
421.91 K, 1563 kPa, Fluid (supercritical or subcritical phases) | 0.02121 W/m/K
421.91 K, 2306 kPa, Fluid (supercritical or subcritical phases) | 0.02366 W/m/K
421.91 K, 2307 kPa, Fluid (supercritical or subcritical phases) | 0.02365 W/m/K
421.92 K, 1563 kPa, Fluid (supercritical or subcritical phases) | 0.02116 W/m/K
421.94 K, 802 kPa, Fluid (supercritical or subcritical phases) | 0.02077 W/m/K
421.95 K, 1862 kPa, Fluid (supercritical or subcritical phases) | 0.02178 W/m/K and 0.0218 W/m/K
421.97 K, 2203 kPa, Fluid (supercritical or subcritical phases) | 0.02307 W/m/K
421.98 K, 1401 kPa, Fluid (supercritical or subcritical phases) | 0.02101 W/m/K
421.98 K, 1403 kPa, Fluid (supercritical or subcritical phases) | 0.02116 W/m/K
421.98 K, 2204 kPa, Fluid (supercritical or subcritical phases) | 0.02311 W/m/K
421.99 K, 3758 kPa, Liquid | 0.05138 W/m/K
421.99 K, 4307 kPa, Liquid | 0.05224 W/m/K
422 K, 3762 kPa, Liquid | 0.05146 W/m/K
422 K, 4305 kPa, Liquid | 0.0522 W/m/K
422.01 K, 1724 kPa, Fluid (supercritical or subcritical phases) | 0.02156 W/m/K and 0.02145 W/m/K
422.01 K, 2914 kPa, Liquid | 0.05029 W/m/K
422.01 K, 3308 kPa, Liquid | 0.05079 W/m/K
422.01 K, 3310 kPa, Liquid | 0.05082 W/m/K
422.02 K, 2616 kPa, Liquid | 0.05008 W/m/K and 0.05005 W/m/K
422.02 K, 2914 kPa, Liquid | 0.05026 W/m/K
422.03 K, 2099 kPa, Fluid (supercritical or subcritical phases) | 0.02265 W/m/K
422.04 K, 2099 kPa, Fluid (supercritical or subcritical phases) | 0.02262 W/m/K
422.06 K, 1218 kPa, Fluid (supercritical or subcritical phases) | 0.02083 W/m/K
422.06 K, 1220 kPa, Fluid (supercritical or subcritical phases) | 0.0209 W/m/K
422.08 K, 1998 kPa, Fluid (supercritical or subcritical phases) | 0.0223 W/m/K
422.1 K, 1030 kPa, Fluid (supercritical or subcritical phases) | 0.02079 W/m/K
422.1 K, 1031 kPa, Fluid (supercritical or subcritical phases) | 0.02076 W/m/K
422.12 K, 1562 kPa, Fluid (supercritical or subcritical phases) | 0.02118 W/m/K
422.16 K, 1862 kPa, Fluid (supercritical or subcritical phases) | 0.02194 W/m/K
422.16 K, 1863 kPa, Fluid (supercritical or subcritical phases) | 0.02189 W/m/K
422.18 K, 803 kPa, Fluid (supercritical or subcritical phases) | 0.0208 W/m/K
422.18 K, 4947 kPa, Liquid | 0.05308 W/m/K
422.18 K, 4948 kPa, Liquid | 0.05312 W/m/K
422.2 K, 1401 kPa, Fluid (supercritical or subcritical phases) | 0.02102 W/m/K
422.2 K, 1402 kPa, Fluid (supercritical or subcritical phases) | 0.02108 W/m/K
422.21 K, 3760 kPa, Liquid | 0.05155 W/m/K and 0.05149 W/m/K
422.21 K, 4301 kPa, Liquid | 0.05224 W/m/K
422.22 K, 4305 kPa, Liquid | 0.05226 W/m/K
422.23 K, 1723 kPa, Fluid (supercritical or subcritical phases) | 0.02155 W/m/K
422.23 K, 3307 kPa, Liquid | 0.05087 W/m/K
422.24 K, 1723 kPa, Fluid (supercritical or subcritical phases) | 0.0216 W/m/K
422.24 K, 3310 kPa, Liquid | 0.05093 W/m/K
422.25 K, 1221 kPa, Fluid (supercritical or subcritical phases) | 0.0209 W/m/K
422.25 K, 2616 kPa, Liquid | 0.05034 W/m/K
422.25 K, 2913 kPa, Liquid | 0.05043 W/m/K
422.25 K, 2914 kPa, Liquid | 0.05049 W/m/K
422.33 K, 1032 kPa, Fluid (supercritical or subcritical phases) | 0.02082 W/m/K
422.33 K, 1561 kPa, Fluid (supercritical or subcritical phases) | 0.02131 W/m/K
422.33 K, 6610 kPa, Liquid | 0.05507 W/m/K
